Data as given in patent publication US9815842B2, “Pyrazolo pyrimidine derivatives and their use as MALT1 inhibitors” (Novartis AG, priority 2014, dated 2017).

Columns and labels:
[1] = biological target: cIAP2-MALT1 fusion protein (Homo sapiens, UniProt Q9UDY8); settings: read-out: NFkappaB reporter gene assay IC50; HEK293 stably expressing cIAP2-MALT1, luciferase, 24 h compound incubation
Protocol: For the measurement of compound inhibition, 0.25 μl of test compound were mixed with 12.5 μl of enzyme in wells of the 384-well plates, and incubated for 60 minutes at room temperature (22° C.). After that, 12.5 μl of substrate was added, and the enzymatic reaction was allowed to proceed for 60 minutes at room temperature (22° C.). […] The DMSO content was between 0.9 and 1% (v/v). […] The IC50 value was calculated from the plot of percentage inhibition versus inhibitor concentration using non-linear regression analysis software (Origin, OriginLab Corporation, USA). The data were fitted using a 4 Parameter Logistic Model, characterized by the following equation: y=A2+(A1−A2)/(1+(x/IC50)^p) where y is the %-inhibition at the inhibitor concentration, x. A1 is the lowest inhibition value, and A2 the maximum inhibition value.

Human IL2 promoter = Human IL2 promoter reporter gene assay (RGA) in Jurkat cells; assay type: cell-based; settings: Jurkat clone K22 290_H23, anti-CD28 mAb + PMA stimulation 5.5 h
Outline: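 Transfected Jurkat clone K22 290_H23 cells were pre-incubated with compounds 30 min at 37 °C, then stimulated 5.5 h with anti-CD28 mAb (15E8, 3 μg/ml) plus PMA (1 μg/ml). IL2-promoter reporter activity was read as BriteLitePlus bioluminescence.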

[2] = biological target: C-domain of MALT1 (amino acids 329-824) (Homo sapiens (Human), UniProt Q9UDY8); test: MALT1 biochemical assay (fluorescence lifetime enzyme activity assay); settings: 60 min pre-incubation, 2.5 nM enzyme, 1 μM peptide substrate
Chain of C-domain of MALT1 (amino acids 329-824) (Q9UDY8 329-824): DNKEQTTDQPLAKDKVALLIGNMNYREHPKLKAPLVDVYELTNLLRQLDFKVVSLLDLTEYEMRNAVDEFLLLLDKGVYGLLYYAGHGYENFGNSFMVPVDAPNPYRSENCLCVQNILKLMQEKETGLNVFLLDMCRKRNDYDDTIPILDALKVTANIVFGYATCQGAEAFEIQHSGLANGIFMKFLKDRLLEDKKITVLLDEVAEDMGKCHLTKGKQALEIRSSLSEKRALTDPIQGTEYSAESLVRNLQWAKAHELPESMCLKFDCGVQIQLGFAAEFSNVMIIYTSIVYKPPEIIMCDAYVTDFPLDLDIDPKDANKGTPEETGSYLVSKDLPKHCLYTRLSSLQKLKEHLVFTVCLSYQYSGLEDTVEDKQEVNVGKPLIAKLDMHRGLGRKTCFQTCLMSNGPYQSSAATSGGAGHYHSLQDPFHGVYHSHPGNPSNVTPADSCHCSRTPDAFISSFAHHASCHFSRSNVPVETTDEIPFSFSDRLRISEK

Chain of cIAP2-MALT1 fusion protein (Q9UDY8 2-824 limits assumed): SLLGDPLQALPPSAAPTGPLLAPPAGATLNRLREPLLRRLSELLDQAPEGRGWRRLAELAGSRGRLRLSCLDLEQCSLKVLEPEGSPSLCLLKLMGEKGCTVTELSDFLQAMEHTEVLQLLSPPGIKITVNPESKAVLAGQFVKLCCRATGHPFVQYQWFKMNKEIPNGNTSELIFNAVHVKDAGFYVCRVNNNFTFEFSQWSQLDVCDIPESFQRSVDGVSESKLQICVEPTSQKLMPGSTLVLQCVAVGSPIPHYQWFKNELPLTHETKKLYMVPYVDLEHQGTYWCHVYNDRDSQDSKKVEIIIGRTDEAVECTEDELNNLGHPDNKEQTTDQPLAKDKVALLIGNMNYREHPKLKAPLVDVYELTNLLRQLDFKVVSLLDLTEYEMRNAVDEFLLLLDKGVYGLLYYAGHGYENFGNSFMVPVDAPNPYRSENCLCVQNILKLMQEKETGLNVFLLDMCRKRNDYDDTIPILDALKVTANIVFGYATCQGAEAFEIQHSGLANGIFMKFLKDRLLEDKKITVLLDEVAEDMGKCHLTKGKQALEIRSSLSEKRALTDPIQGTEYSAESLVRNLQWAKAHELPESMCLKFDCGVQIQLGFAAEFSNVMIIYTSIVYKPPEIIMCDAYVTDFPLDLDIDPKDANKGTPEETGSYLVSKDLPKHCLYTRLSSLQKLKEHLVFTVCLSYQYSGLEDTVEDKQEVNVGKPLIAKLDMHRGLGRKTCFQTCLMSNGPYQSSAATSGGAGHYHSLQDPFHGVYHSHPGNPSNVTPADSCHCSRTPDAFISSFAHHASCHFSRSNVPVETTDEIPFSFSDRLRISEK

CO[C@@H](C)c1c(NC(=O)Nc2ccnc(C(F)(F)F)c2)cnc2cc(C)nn12 [Example 6, (S)-1-(7-(1-methoxyethyl)-2-methylpyrazolo[1,5-a]pyrimidin-6-yl)-3-(2-(trifluoromethyl)pyridin-4-yl)urea]
IC50 [1]: 0.132 µM
IC50 (Human IL2 promoter): 0.052 µM

COc1ncc(NC(=O)Nc2cnc3cc(Cl)nn3c2[C@H](C)OC)cc1Cl [Example 9, (S)-1-(5-chloro-6-methoxypyridin-3-yl)-3-(2-chloro-7-(1-methoxyethyl)pyrazolo[1,5-a]pyrimidin-6-yl)urea]
IC50 [1]: 0.044 µM
IC50 (Human IL2 promoter): 0.109 µM

CC(C)c1c(NC(=O)Nc2cc(Cl)c(-n3nccn3)nc2OC2CCN(C)C2)cnc2cc(Cl)nn12 (stereo not shown) [Example 33, 1-(5-chloro-2-((1-methylpyrrolidin-3-yl)oxy)-6-(2H-1,2,3-triazol-2-yl)pyridin-3-yl)-3-(2-chloro-7-isopropylpyrazolo[1,5-a]pyrimidin-6-yl)urea]
IC50 [1]: 0.408 µM
IC50 [2]: 0.03 µM

CCC(C)c1c(NC(=O)Nc2cnc(-n3nccn3)c(Cl)c2)cnc2cc(Cl)nn12 (stereo not shown) [Example 35, 1-(7-(sec-butyl)-2-chloropyrazolo[1,5-a]pyrimidin-6-yl)-3-(5-chloro-6-(2H-1,2,3-triazol-2-yl)pyridin-3-yl)urea]
IC50 [1]: 0.048 µM
IC50 (Human IL2 promoter): 0.059 µM

O=C(Nc1cnc(-n2nccn2)c(C(F)(F)F)c1)Nc1cnc2cc(Cl)nn2c1C1CCCO1 (stereo not shown) [Example 54, 1-(6-(2H-1,2,3-triazol-2-yl)-5-(trifluoromethyl)pyridin-3-yl)-3-(2-chloro-7-(tetrahydrofuran-2-yl)pyrazolo[1,5-a]pyrimidin-6-yl)urea]
IC50 [1]: 0.117 µM
IC50 (Human IL2 promoter): 0.094 µM

O=C(Nc1cnc(-n2nccn2)c(C(F)(F)F)c1)Nc1cnc2cc(Cl)nn2c1-c1ccco1 [Example 63, 1-(6-(2H-1,2,3-triazol-2-yl)-5-(trifluoromethyl)pyridin-3-yl)-3-(2-chloro-7-(furan-2-yl)pyrazolo[1,5-a]pyrimidin-6-yl)urea]
IC50 [1]: 0.354 µM

O=C(Nc1cnc(-n2nccn2)c(Cl)c1)Nc1cnc2cc(Cl)nn2c1C1CC12CCOC2 (stereo not shown) [Example 68, 1-(5-chloro-6-(2H-1,2,3-triazol-2-yl)pyridin-3-yl)-3-(2-chloro-7-(5-oxaspiro[2.4]heptan-1-yl)pyrazolo[1,5-a]pyrimidin-6-yl)urea]
IC50 [1]: 0.586 µM

COc1ncc(NC(=O)Nc2cnc3cc(Cl)nn3c2-c2ccncc2)cc1Cl [Example 69, 1-(5-chloro-6-methoxypyridin-3-yl)-3-(2-chloro-7-(pyridin-4-yl)pyrazolo[1,5-a]pyrimidin-6-yl)urea]
IC50 [1]: 0.678 µM

CN1CCOCC1Cc1c(NC(=O)Nc2cnc(-n3nccn3)c(Cl)c2)cnc2cc(Cl)nn12 (stereo not shown) [Example 83, 1-(5-chloro-6-(2h-1,2,3-triazol-2-yl)pyridin-3-yl)-3-(2-chloro-7-((4-methylmorpholin-3-yl)methyl)pyrazolo[1,5-a]pyrimidin-6-yl)urea]
IC50 [1]: 0.829 µM

COc1ncc(NC(=O)Nc2cnc3cc(Cl)nn3c2C2CCC(C)O2)cc1Cl (stereo not shown) [Example 87, 1-(5-chloro-6-methoxypyridin-3-yl)-3-(2-chloro-7-(5-methyltetrahydrofuran-2-yl)pyrazolo[1,5-a]pyrimidin-6-yl)urea]
IC50 [1]: 0.417 µM

CN1CCOC(c2c(NC(=O)Nc3cnc(-n4nccn4)c(Cl)c3)cnc3cc(Cl)nn23)C1 (stereo not shown) [Example 116, 1-(5-chloro-6-(2H-1,2,3-triazol-2-yl)pyridin-3-yl)-3-(2-chloro-7-(4-methylmorpholin-2-yl)pyrazolo[1,5-a]pyrimidin-6-yl)urea]
IC50 [1]: 0.687 µM

C[C@H](c1c(NC(=O)Nc2cnc(-n3nccn3)c(Cl)c2)cnc2cc(Cl)nn12)N(C)C [Example 121, (R)-1-(5-chloro-6-(2H-1,2,3-triazol-2-yl)pyridin-3-yl)-3-(2-chloro-7-(1-(dimethylamino)ethyl)pyrazolo[1,5-a]pyrimidin-6-yl)urea]
IC50 [1]: 0.218 µM

C[C@@H](c1c(NC(=O)Nc2cnc(-n3nccn3)c(Cl)c2)cnc2cc(Cl)nn12)N(C)C [Example 122, (S)-1-(5-chloro-6-(2H-1,2,3-triazol-2-yl)pyridin-3-yl)-3-(2-chloro-7-(1-(dimethylamino)ethyl)pyrazolo[1,5-a]pyrimidin-6-yl)urea]
IC50 [1]: 0.043 µM
IC50 (Human IL2 promoter): 0.017 µM
